According to article PMC8221234 (Chemical biology & drug design, 2009):

Key:
[1] = tested on: eIF2α phosphorylation in NIH3T3 cells; conditions: cited from earlier work
[2] = tested on: eIF2α phosphorylation in NIH3T3 cells; experiment: UV-induced eIF2α phosphorylation in NIH3T3 cells; type: cell-based; conditions: compared with MEFs, data not shown

Oc1c2ccccc2c2c3c(cccc13)N=N2 [SP600125]
Effect on eIF2α phosphorylation following UV irradiation (qualitative) [1]: did not prevent the phosphorylation of eIF2α | Effect on UV-induced eIF2α phosphorylation in NIH3T3 cells (qualitative) [2]: does not prevent eIF2α phosphorylation
